Assay [1] deals with homozygous ALDH2*2 knock-in mice. Put plainly: mouse surgical model of endometriosis, endometrial cyst area, ALDH2*2 knock-in mice. The settings on record: ALDH2*2 mice, vs DMSO. The format is in vivo. From the text:
(§1) FIG. 2A-2C. Relative to wild type mice, ALDH2*2 mice develop larger endometrial cysts by 3 days after endometriosis surgery. FIG. 2A In a mouse surgical model of endometriosis, three (2 mm×2 mm) uterine horn auto transplants are sutured onto cascading mesenteric arteries which in turn since located outside the uterus develop cysts in the abdomen. FIG. 2B Female wild type (C57/BL6) and ALDH2*2 knock-in mice on the same genetic background 8-10 weeks of age were induced with endometriosis and sacrificed 1, 3, or 28 days later. Endometrial cysts were collected and cyst area was measured (length×width). FIG. 2C Average cyst area was calculated for each group (wild type: blue, ALDH2*2: red) of mice at day 1, 3, and 28. Data are presented as mean±SEM, n=6 mice/group.
(§2) FIG. 3A-3D. Alda-1 reduces endometrial cyst size 3 days and 28 days after endometriosis induction. FIG. 3A. […] FIG. 3B. […]
(§3) Briefly, mice were anesthetized with isoflurane (1-3%) and an off-midline (left side) incision made through the skin and muscle layer to expose the pelvic and abdominal organs. […] On day 1, 3, or 28 after endometriosis induction, mice were sacrificed, endometrial cyst length and width measured to calculate cyst area, and then the average cyst area per group determined.

A further assay concerns wild type C57/BL6 mice. Nature of the assay: mouse surgical model of endometriosis, endometrial cyst area, wild type mice. The format is in vivo. As to conditions: vs DMSO.
Description: as §1, §2, §3

Assay [2] has as its system female Sprague-Dawley rats. Put plainly: acetaldehyde-induced vaginal hyperalgesia, escape response to vaginal balloon distention. The class given is in vivo, rat. The settings on record: Alda-1 1 mg/kg i.p. alone, in the absence of the noxious stimulus. An excerpt: FIG. 1A-1C. Alda-1 mitigates acetaldehyde-induced vaginal hyperalgesia in rats. FIG. 1A Five female Sprague-Dawley rats initially weighing 150-175 g were trained over a period of ˜4 weeks to terminate an escape response from the noxious stimuli produced by a balloon inflated in the vagina. Top image: Rats trained to be accustomed to the testing chamber. Bottom image: The escape response assessed by the rat poking its head into a tube. This response in turn breaks an infrared beam and causes the vaginal balloon to deflate. […] The shaded area is calculated as the area under the curve. n=5 rats/volume FIG. 1C Histogram of vaginal escape response expressed as the area under the curve calculated using standard trapezoid methods. […]
Alda and endonetriosis: Although rodent inflammatory pain models such as carageenan and CFA may represent some aspects of endometriosis, there is a validated rat model of endometriosis-associated pain, which produces signs and painful symptoms similar to those in women (S. McAllister, K. McGinty, D. Resuehr, K. Berkley. Endometriosis-induced vaginal hyperalgesia in the rat: Role of the ectopic growths and their innervation. Pain. 147: 255-264 (2009)). […] The rat is then monitored to determine an escape response, which is assessed by the rodent breaking an infrared beam with its nose; this, in turn, causes the inflated balloon in the vagina to deflate (FIG. 1A). […]

In assay [3] the test system is rodent models of inflammatory pain. The settings on record: earlier work of the inventors; cited from earlier work.
Setting [4] is: Alda-1 5 mg/kg subcutaneous Alzet pump for 3 days.

“Also recorded” adds a separate entry of the source.

Take `O=C(NCc1ccc2c(c1)OCO2)c1c(Cl)cccc1Cl` [Alda-1, N-(1,3-benzodioxol-5-ylmethyl)-2,6-dichlorobenzamide]: the “average endometrial cyst area” value in assay [1] (setting [4]) is on record as “significant reduction; also recorded: significantly reduced”; in assay [1] (Alda-1 5 mg/kg subcutaneous Alzet pump for 28 days), “significant reduction; also recorded: significantly reduced”; in the assay on wild type C57/BL6 mice (setting [4]), “significant reduction”; with wild type C57/BL6 mice (Alda-1 5 mg/kg subcutaneous Alzet pump for 28 days, 5 mg/kg), “significant reduction; also recorded: significantly reduced”. Also, the “vaginal escape response (area under the curve), effect of compound alone” value in assay [2] is given as “No effect”. Moreover, the pain thresholds result in assay [3] was “increases pain thresholds”.

Source of the values: patent US11974981B2, “Methods and compositions for treating endometriosis and endometriosis associated symptoms” (The Board of Trustees of the Leland Stanford Junior …, priority 2017, dated 2024).
